Results reported in US20040024024A1, “Aromatic sulfone hydroxamates and their use as protease inhibitors” (priority 2001, published 2004).
Where a name gives a salt, the structure may show the parent alone.

Columns and labels:
Assay in all cases: In vitro MMP inhibition, IC50 determination (fluorogenic substrate I)
Assay type in all cases: biochemical
[1] = target: T1, Human recombinant MMP-2 (Homo sapiens, UniProt P08253)
T1 construct: made in house; host or cells: MMP-2-transfected p2AHT2 cells
T1 sequence (P08253 110-660): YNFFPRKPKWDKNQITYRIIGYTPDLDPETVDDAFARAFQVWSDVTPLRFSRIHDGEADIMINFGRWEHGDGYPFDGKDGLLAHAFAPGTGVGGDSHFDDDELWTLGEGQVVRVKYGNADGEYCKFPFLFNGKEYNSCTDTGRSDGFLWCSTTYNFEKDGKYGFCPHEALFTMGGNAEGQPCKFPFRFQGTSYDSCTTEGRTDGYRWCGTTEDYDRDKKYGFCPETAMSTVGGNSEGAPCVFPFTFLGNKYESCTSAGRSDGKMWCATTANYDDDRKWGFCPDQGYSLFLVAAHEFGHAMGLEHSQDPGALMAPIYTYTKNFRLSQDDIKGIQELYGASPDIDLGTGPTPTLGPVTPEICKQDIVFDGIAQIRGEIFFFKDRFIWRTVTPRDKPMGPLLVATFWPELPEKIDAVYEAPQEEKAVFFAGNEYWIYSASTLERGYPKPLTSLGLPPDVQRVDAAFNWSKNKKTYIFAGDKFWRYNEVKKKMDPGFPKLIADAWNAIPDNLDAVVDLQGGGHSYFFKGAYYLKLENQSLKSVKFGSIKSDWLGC
Method in brief: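 APMA- or trypsin-activated recombinant MMP-2 was incubated at room temperature with serial inhibitor dilutions in Tris buffer pH 7.5 (100 mM NaCl, 10 mM CaCl2, 0.05% Brij), with DMSO from 1% stocks, and 4 μM substrate I. Cleavage was read by fluorescence at 328/415 nm; IC50 was taken from the loss of fluorescence versus inhibitor concentration.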

[2] = target: T2, Human recombinant MMP-9 (Homo sapiens, UniProt P14780)
T2 construct: made in house; host or cells: MMP-9-transfected HT1080 cells (spent media)
Method in brief: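 MMP-9 proenzyme purified from transfected HT1080 cell media, activated with APMA or trypsin. Compound dilutions in pH 7.5 Tris/NaCl/CaCl2 buffer with 0.05% polyoxyethylene 23 lauryl ether, incubated at room temperature with 4 μM MCA/Dpa substrate I. IC50 from fluorescence loss (ex 328, em 415 nm) versus inhibitor concentration.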

[3] = target: T3, Human recombinant MMP-14 (Homo sapiens, UniProt P50281)
T3 construct: The catalytic domain enzyme was expressed in E. coli inclusion bodies, solubilized in urea; made in house
Method in brief: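 Catalytic-domain MMP-14, expressed in E. coli and refolded, activated with APMA or trypsin; compounds incubated at room temperature with 4 μM fluorogenic substrate I (MCA-PLGL-Dpa-AR-NH2) in Tris/NaCl/CaCl2 buffer, pH 7.5. Fluorescence at ex 328/em 415 nm; IC50 from loss of fluorescence versus inhibitor concentration.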

[4] = substrate (I) 4 μM, room temperature, values not in parenthesis

T2 sequence (P14780 107-707 limits assumed): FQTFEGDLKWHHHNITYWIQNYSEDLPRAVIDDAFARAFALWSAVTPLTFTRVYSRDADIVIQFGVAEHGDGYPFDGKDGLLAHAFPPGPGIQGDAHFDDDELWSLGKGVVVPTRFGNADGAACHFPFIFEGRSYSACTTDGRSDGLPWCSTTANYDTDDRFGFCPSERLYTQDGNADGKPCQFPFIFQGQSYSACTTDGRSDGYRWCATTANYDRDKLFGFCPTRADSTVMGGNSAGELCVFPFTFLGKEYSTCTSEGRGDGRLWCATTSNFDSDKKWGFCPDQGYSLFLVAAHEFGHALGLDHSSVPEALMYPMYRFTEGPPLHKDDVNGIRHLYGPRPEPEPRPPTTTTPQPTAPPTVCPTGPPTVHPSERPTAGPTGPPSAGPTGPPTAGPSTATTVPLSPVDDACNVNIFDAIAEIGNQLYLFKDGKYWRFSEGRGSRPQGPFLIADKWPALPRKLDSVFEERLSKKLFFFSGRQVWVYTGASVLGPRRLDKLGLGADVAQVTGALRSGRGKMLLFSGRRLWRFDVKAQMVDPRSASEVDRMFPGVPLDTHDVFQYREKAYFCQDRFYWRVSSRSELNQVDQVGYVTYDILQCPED

Row | Structure (SMILES) | IC50 ([1]; value outside parenthesis) [nM] | IC50 ([2]; value outside parenthesis) [nM] | IC50 ([3]; value outside parenthesis) [nM] | other results
1 | O=C(CCCOc1ccc(S(=O)(=O)C2(C(=O)NO)CCOCC2)cc1)Nc1cccc(OC(F)(F)F)c1 [Example 181] | 13.9 | 26.4 | 8060 | 
2 | CCN1CCC(C(=O)NO)(S(=O)(=O)c2ccc(OCCCSc3nc4ccccc4s3)cc2)CC1 [Example 591] |  |  |  | IC50 ([1]; value outside parentheses): 3.5 nM; IC50 ([2]; value outside parentheses): 12 nM; IC50 ([3]; value outside parentheses): > 10000 nM
3 | O=C(NO)C1(S(=O)(=O)c2ccc(OCCCc3cccc(-c4ccc([N+](=O)[O-])cc4)c3)cc2)CCOCC1 [Example 626] |  |  |  | IC50 ([1]; value outside parentheses): 143 nM; IC50 ([2]; value outside parentheses): 885 nM; IC50 ([3]; value outside parentheses): > 10000 nM
4 | O=C(NO)C1(S(=O)(=O)c2ccc(OCCCc3nc(-c4ccc(OC(F)(F)F)cc4)no3)cc2)CCN(C2CC2)CC1 [Example 51, 1-cyclopropyl-N-hydroxy-4-{[4-(3-{3-[4-(trifluoromethoxy)phenyl]-1,2,4-oxadiazol-5-yl}propoxy)phenyl]sulfonyl}piperidine-4-carboxamide Hydrochloride] |  |  |  | IC50 [1, 4]: 252 nM; IC50 [2, 4]: 7980 nM; IC50 [3, 4]: > 10000 nM
5 | O=C(NO)C1(S(=O)(=O)c2ccc(OCCCc3cccc(-c4ccsc4)c3)cc2)CCOCC1 [Example 632] |  |  |  | IC50 ([1]; value outside parentheses): 91 nM; IC50 ([2]; value outside parentheses): 411 nM; IC50 ([3]; value outside parentheses): > 10000 nM
6 | COCCN1CCC(C(=O)NO)(S(=O)(=O)c2ccc(OCCCc3nc(-c4ccc(OC(F)(F)F)cc4)no3)cc2)CC1 [Example 190] | 166 | 1740 | > 10000 | 
7 | N#Cc1ccc(-c2cccc(CCCOc3ccc(S(=O)(=O)C4(C(=O)NO)CCOCC4)cc3)c2)cc1 [Example 624] |  |  |  | IC50 ([1]; value outside parentheses): 214 nM; IC50 ([2]; value outside parentheses): 1030 nM; IC50 ([3]; value outside parentheses): > 10000 nM
8 | O=C(CCCc1ccc(S(=O)(=O)C2(C(=O)NO)CCOCC2)cc1)c1cccc(-c2ccccc2)c1 [Example 219] | 60.8 | 77.7 | > 10000 | 
9 | COCCN1CCC(C(=O)NO)(S(=O)(=O)c2ccc(OCCCc3nc(-c4ccc(CC(C)C)cc4)no3)cc2)CC1 [Example 175] | 438 | 7300 | > 10000 | 
10 | O=C(NO)C1(S(=O)(=O)c2ccc(OCCCn3nnc(-c4ccc(OC(F)(F)F)cc4)n3)cc2)CCN(CC2CC2)CC1 [Example 53] |  |  |  | IC50 [1, 4]: 384 nM; IC50 [2, 4]: 75.5 nM; IC50 [3, 4]: > 10000 nM
11 | O=C(NO)C1(S(=O)(=O)c2ccc(OCCCc3cccc(-c4cccs4)c3)cc2)CCOCC1 [Example 595] |  |  |  | IC50 ([1]; value outside parentheses): 482 nM; IC50 ([2]; value outside parentheses): 1730 nM; IC50 ([3]; value outside parentheses): > 10000 nM
12 | CCN1CCC(C(=O)NO)(S(=O)(=O)c2ccc(OCCCc3nc(-c4ccc(OC(F)(F)F)cc4)no3)cc2)CC1 [Example 41, 1-ethyl-N-hydroxy 4-{[4-(3-{3-[4-(trifluoromethoxy)phenyl]-1,2,4-oxadiazol-5-yl}propoxy)phenyl]sulfonyl}piperidine-4-carboxamide Hydrochloride] |  |  |  | IC50 [1, 4]: 357 nM; IC50 [2, 4]: 1600 nM; IC50 [3, 4]: > 10000 nM
13 | COCCN1CCC(C(=O)NO)(S(=O)(=O)c2ccc(OCCCn3nnc(-c4ccc(OC(F)(F)F)cc4)n3)cc2)CC1 [Example 48] |  |  |  | IC50 [1, 4]: 105 nM; IC50 [2, 4]: 4450 nM; IC50 [3, 4]: > 10000 nM
14 | O=C(Cc1csc2ccccc12)NCCOc1ccc(S(=O)(=O)C2(C(=O)NO)CCOCC2)cc1 [Example 596] |  |  |  | IC50 ([1]; value outside parentheses): 10.3 nM; IC50 ([2]; value outside parentheses): 194 nM; IC50 ([3]; value outside parentheses): 2490 nM
15 | COCCN1CCC(C(=O)NO)(S(=O)(=O)c2ccc(OCCCc3nnc(-c4ccccc4C(F)(F)F)o3)cc2)CC1 [Example 178] | 28.4 | 1170 | > 10000 | 
16 | O=C(CCCOc1ccc(S(=O)(=O)C2(C(=O)NO)CCOCC2)cc1)Nc1ccc(OC(F)(F)F)cc1 [Example 250] | 2.5 | 22.5 | 7630 | 
17 | Cc1cc(OC(F)(F)F)ccc1NC(=O)CCCOc1ccc(S(=O)(=O)C2(C(=O)NO)CCOCC2)cc1 [Example 229] | 12.2 | 294 | > 10000 | 
18 | O=C(NO)C1(S(=O)(=O)c2ccc(OCCCc3cncc(-c4ccc(F)cc4)c3)cc2)CCOCC1 [Example 523] |  |  |  | IC50 ([1]; value outside parentheses): 162 nM; IC50 ([2]; value outside parentheses): 1650 nM; IC50 ([3]; value outside parentheses): > 10000 nM
19 | COCCN1CCC(C(=O)NO)(S(=O)(=O)c2ccc(OCCCc3nc(-c4ccccc4OC(F)(F)F)no3)cc2)CC1 [Example 152] | 58.8 | 72.3 | > 10000 | 
20 | COc1ccc(/C(C#N)=C/CCCOc2ccc(S(=O)(=O)C3(C(=O)NO)CCN(C4CC4)CC3)cc2)cc1 [Example 233] | 25.5 | 832 | > 10000 | 
21 | O=C(NO)C1(S(=O)(=O)c2ccc(OCCCc3cc(-c4ccc(OC(F)(F)F)cc4)cs3)cc2)CCOCC1 [Example 608] |  |  |  | IC50 ([1]; value outside parentheses): 342 nM; IC50 ([2]; value outside parentheses): 1790 nM; IC50 ([3]; value outside parentheses): > 10000 nM

The next lines start with results.

Row | IC50 ([1]; value outside parenthesis) [nM] | IC50 ([2]; value outside parenthesis) [nM] | IC50 ([3]; value outside parenthesis) [nM] | Structure (SMILES) | other results
22 | 316 | 2420 | > 10000 | O=C(NO)C1(S(=O)(=O)c2ccc(OCCCc3cccc(Cc4ccccc4)c3)cc2)CCOCC1 [Example 98] | 
23 | 383 | > 10000 | > 10000 | O=C(NO)C1(S(=O)(=O)c2ccc(OCCc3cccc(-c4ccc(F)cc4)c3)cc2)CCOCC1 [Example 123] | 
24 | 208 | 4510 | > 10000 | O=C(NO)C1(S(=O)(=O)c2ccc(OCCCc3cccc(-c4ccc(F)cc4)c3)cc2)CCN(C2CC2)CC1 [Example 139] | 
25 | 136 | 530 | 6630 | O=C(NO)C1(S(=O)(=O)c2ccc(OCCCc3cccc(-c4cccnc4)c3)cc2)CCOCC1 [Example 150] | 
26 | 91.4 | 1200 | > 10000 | CC(C)C(=O)c1cccc(CCCOc2ccc(S(=O)(=O)C3(C(=O)NO)CCOCC3)cc2)c1 [Example 95] | 
27 | 1370 | 2880 | > 10000 | O=C(NO)C1(S(=O)(=O)c2ccc(OCCCc3cccc(-c4ccccc4F)c3)cc2)CCOCC1 [Example 163] | 
28 | 312 | > 10000 | > 10000 | O=C(NO)C1(S(=O)(=O)c2ccc(OCCc3cccc(-c4ccccc4F)c3)cc2)CCOCC1 [Example 115] | 
29 | 27.3 | 963 | 5820 | O=C(NO)C1(S(=O)(=O)c2ccc(OCCc3cccc(-c4cccnc4)c3)cc2)CCOCC1 [Example 125] | 
30 | 20.3 | 1980 | 7720 | O=C(NO)C1(S(=O)(=O)c2ccc(OCCc3cccc(-c4ccncc4)c3)cc2)CCOCC1 [Example 113] | 
31 | 13.2 | 432 | > 10000 | O=C(NO)C1(S(=O)(=O)c2ccc(OCCCc3ccnc(-c4ccccc4)c3)cc2)CCOCC1 [Example 197] | 
